Counter-ions that a name gives are not always drawn. Like-named read-outs stand apart in the source and are kept apart here.
Columns and labels:
dopamine D-2 receptor = dopamine D-2 receptor (Rattus norvegicus, UniProt P61169); assay: biochemical; assay type: binding; details: rat caudate, [125I]-p-aminophenylethyl spiroperidol; read-out: D-2 Ki
Method: Homogenized rat caudate was the source of the D-2 receptors. […] The molar affinity of the compound for the receptor binding site was calculated by the same method used for the D-1 receptor assay, assuming a competitive interaction between the compound and the radiolabeled ligand.

dopamine D-1 receptor [1] = details: for Intrinsic Activity (adenylate cyclase assay): dopamine = 100, goldfish retina or rat striatum; for EC50: read-out: EC50 (agonist activity in adenylate cyclase assay), tissue from goldfish retina or rat striatum
Method: In order to determine agonist activity, cell-free tissue homogenates are incubated in an ionic buffer solution containing ATP and the compound being evaluated. The tissue was obtained from either goldfish retina or rat striatum.

dopamine D-1 receptor [2] = molecular target: T1, dopamine D-1 receptor (Rattus norvegicus, UniProt P18901); details: read-out: D-1 Ki; rat caudate, [125I]SCH-23982
Source text: (§1) The compounds compete with the radiolabeled ligand for occupancy of the receptors and the molar potency of each compound was quantified.
(§2) The Ki values are inversely proportional to the affinity of the compound for the receptor.

[3] = tested on: striatal dopamine receptors; assay: Rotation behavior assay of in vivo activity (6-hydroxydopamine lesioned rat rotational model); details: for ED50 s.c. (rotation behavior): injected subcutaneously
anesthetized dogs = assay: Cardiovascular pharmacology - hemodynamic studies in anesthetized dogs; assay type: in vivo, dog (Beagle); details: cumulative intraaortic infusion above renal arteries; dose ranges (g/kg/min): 2A 3-10, 3 1-10, 35 1-3, 36 1-10, 37 1-30
Method: Male Beagle dogs were anesthetized with pentobarbital (30 mg/kg. i.v.) and maintained with i.v. infusion (Abbott/Shaw Life Care Pump, Model II/D) to maintain stable cardiovascular function. The dogs were […] with a cuffed endotracheal tube and ventilated with room air by means of a positive pressure respiratory pump. Expired respiratory CO2 was monitored with a Beckman LB-2 gas analyzer and maintained at 5% by appropriate pump adjustments. The dogs were maintained at a body temperature of 37.5°±1.0° C. with a thermostatically controlled animal table. Polyethylene catheters were placed in the abdominal aorta via the femoral and carotid arteries for blood pressure and left ventricular pressure recordings. A Swan-Ganz thermodilution catheter with a 15 cm proximal port was placed in the jugular vein for central venous and pulmonary arterial recordings and for determination of cardiac output (American Edwards Cardiac Output Computer, Model COM-1). Heart rate and electrocardiogram (ECG) recordings were made from a Lead II ECG connection. […] A calibrated electromagnetic flow probe (Carolina Medical Electronics) was positioned around the renal artery. The abdominal cavity is closed with wound clips. Recordings were made on a Grass polygraph. An additional small polyethylene catheter was inserted into a branch of the left femoral artery and the tip positioned in the aorta above the renal arteries. […] A thirty-fold dose-response-curve was administered by varying flow rate from 0.01 to 0.30 mL/minute.

dopamine D-1 receptor [4] = molecular target: T1, dopamine D-1 receptor; assay: biochemical; details: D-1 Ki, rat caudate, [125I]SCH-23982
Source text: as §1, §2

Chain of dopamine D-2 receptor (P61169 whole entry): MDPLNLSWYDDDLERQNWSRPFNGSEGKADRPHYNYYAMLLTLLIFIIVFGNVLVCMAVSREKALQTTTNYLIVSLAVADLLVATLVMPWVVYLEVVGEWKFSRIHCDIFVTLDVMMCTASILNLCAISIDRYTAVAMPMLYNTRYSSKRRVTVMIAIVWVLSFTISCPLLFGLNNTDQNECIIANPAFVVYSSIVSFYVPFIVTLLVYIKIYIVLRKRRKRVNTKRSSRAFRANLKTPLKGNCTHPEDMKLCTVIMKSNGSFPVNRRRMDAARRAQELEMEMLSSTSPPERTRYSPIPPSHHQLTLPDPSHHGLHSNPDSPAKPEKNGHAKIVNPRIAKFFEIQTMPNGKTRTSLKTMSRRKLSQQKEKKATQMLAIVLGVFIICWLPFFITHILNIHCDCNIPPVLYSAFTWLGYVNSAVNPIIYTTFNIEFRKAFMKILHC
T1 sequence (P18901 whole entry): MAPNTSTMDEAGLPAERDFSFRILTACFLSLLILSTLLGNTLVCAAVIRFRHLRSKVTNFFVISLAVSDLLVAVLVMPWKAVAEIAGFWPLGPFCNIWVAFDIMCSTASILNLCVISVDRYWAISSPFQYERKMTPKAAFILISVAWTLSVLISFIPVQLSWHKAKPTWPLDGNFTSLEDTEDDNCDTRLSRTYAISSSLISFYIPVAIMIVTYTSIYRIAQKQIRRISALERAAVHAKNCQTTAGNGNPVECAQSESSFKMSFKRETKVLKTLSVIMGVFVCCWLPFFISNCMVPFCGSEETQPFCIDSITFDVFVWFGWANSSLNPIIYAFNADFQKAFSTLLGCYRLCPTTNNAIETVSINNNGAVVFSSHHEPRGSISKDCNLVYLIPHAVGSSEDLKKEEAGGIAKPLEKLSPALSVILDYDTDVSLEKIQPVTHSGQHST

Row | Ki (dopamine D-2 receptor) [nM] | Intrinsic Activity (adenylate cyclase assay) (dopamine D-1 receptor [1]) | EC50 (dopamine D-1 receptor [1]) [nM] | Ki (dopamine D-1 receptor [2]) [nM] | Ki (dopamine D-1 receptor [4]) [nM] | SMILES | ED50 s.c. (rotation behavior) [3] [µmol/kg] | Max Decrease MAP (mean arterial blood pressure) (anesthetized dogs) [%] | Max Increase RBF (renal blood flow) (anesthetized dogs) [%] | ED50 oral (rotation behavior) [3] [µmol/kg]
1 | 3200 | 78 | 220 | 190 |  | CN1CCC2=C(C1)c1ccc(O)c(O)c1CC2c1ccccc1 (stereo not drawn) [Example 246] | 0.54 |  |  | 
2 |  |  |  |  |  | CC(=O)Oc1ccc2c(c1OC(C)=O)CC(c1ccccc1)C=C2CN.Cl (stereo not drawn) [Example 3, 5,6-Bis(acetoxy)-1-aminomethyl-3-phenyl-3,4-dihydronaphthalene Hydrochloride] | 0.91 | 8 | 83 | 
3 | 10000 | 56 | 31 |  | 57 | Br.NC[C@@H]1C[C@H](C2CCCCC2)Cc2c1ccc(O)c2O [Example 37, [1R,3S]1-Aminomethyl-3-cyclohexyl-5,6-dihydroxy-1,2,3,4-tetrahydronaphthalene Hydrobromide] |  | 39 | 48 | 
4 | 4600 | 65 | 17 | 390 |  | Oc1ccc2c(c1O)C[C@H](c1ccccc1)C[C@H]2[C@H]1CCCN1 (relative stereo) [Example 181, [1,3-cis]5.6-Dihydroxy-3-phenyl-1-(2'-pyrrolidinyl)-1,2,3,4-tetrahydronaph-thalene Hydrobromide] |  |  |  | 
5 | 190 | 82 | 170 | 51 |  | C=CCNC[C@@H]1O[C@H](c2ccccc2)Cc2c1ccc(O)c2O (stereo in doubt) [Example 130] | 0.13 |  |  | 8
6 | > 10000 | 71 | 500 | 900 |  | CC(C)OC(=O)CCC(=O)Oc1ccc2c(c1OC(=O)CCC(=O)OC(C)C)CC(c1ccccc1)C=C2CN (stereo not drawn) [Example 24] |  |  |  | 
7 | 760 | 66 | 10 |  | 30 | NC[C@H]1C[C@@H](c2ccccc2)Cc2c1ccc(O)c2O (relative stereo) [Example 35, [1,3-cis]1-Aminomethyl-5,6-dihydroxy-3-phenyl-1,2,3,4-tetrahydronaphthalene Hydrobromide] |  | 26 | 35 | 21.4
8 | 2500 | 58 | 7000 | 5800 |  | CCCNCC1=CC(c2ccccc2)Cc2c1ccc(O)c2O (stereo not drawn) [Example 151] |  |  |  | 
9 | 830 | 140 | 1450 | 790 |  | CCCCCC(NC(C)=O)[C@@H]1Cc2c(ccc(O)c2O)[C@H](CN)O1 (relative stereo) [Example 163] |  |  |  | 
10 | 17000 | 105 | 31 | 1800 |  | CCCCCC(NC(=O)CCl)[C@@H]1Cc2c(ccc(O)c2O)[C@H](CN)O1 (relative stereo) [Example 165] |  |  |  | 
11 | 1800 | 75 | 30 | 20 |  | CN1CCC2=C(C1)c1ccc(O)c(O)c1CC2c1ccccc1 (stereo not drawn) [Example 247] | 0.014 |  |  | 
12 | > 10000 | 57 | 79 |  | 200 | Br.NCC1=CC(C2CCCCC2)Cc2c1ccc(O)c2O (stereo not drawn) [Example 36, 1-Aminomethyl-3-cyclohexyl-5,6-dihydroxy-3,4-dihydronaphthalene Hydrobromide] | 0.5 | 13 | 94 | 170

From patent US5621133A (priority 1995, dated 1997)
